Earlier results in patent US20050064563A1, “Nucleic acids for aminocoumarin biosynthesis” (priority 2001, published 2005).
pIC50: −log10 of the molar value.

Biological target: intact gyrase (bacterial DNA gyrase) (Escherichia coli, UniProt P0AES6)
Conditions: intact gyrase heterotetramer; Peng et al. (1993) J. Biol. Chem. 268: 24481-24490; read-out: concentration achieving 50% inhibition of gyrase

CO[C@H]1[C@H](OC(=O)c2ccc(C)[nH]2)[C@H](O)[C@@H](Oc2ccc3c(O)c(NC(=O)c4c[nH]c(C(=O)Nc5c(O)c6ccc(O[C@H]7OC(C)(C)[C@@H](OC)[C@H](OC(=O)c8ccc(C)[nH]8)[C@@H]7O)c(C)c6oc5=O)c4C)c(=O)oc3c2C)OC1(C)C [coumermycin A1]
pIC50: 8.40
